Measurements: article PMC5917001, “Counter-ion effect on antistaphylococcal activity and cytotoxicity of selected antimicrobial peptides” (Amino Acids, 2018)
Where no end group is shown, it is not given here.

Key:
[1] = test system: S. aureus (29): reference (5) and clinical (24) strains; details: for Mean value of MIC: mean over 29 S. aureus strains (Table 5); for Mean MIC values: mean over 29 S. aureus strains, as repeated in Table 6; for MIC range among strains: range over all S. aureus strains and the salts of the peptide
Method: Microbiological assays were performed using reference and clinical strains of Staphylococcus aureus. Minimal inhibitory concentrations (MIC) were determined by broth microdilution method on 96-well polystyrene plates according to Clinical and Laboratory Standards Institute (CLSI) recommendations [Clinical and Laboratory Standards Institute (CLSI) [2012]]. […] All plates were incubated for 18 h at 37 °C. […] Reference strains of S. aureus: ATCC 6538, ATCC 6538/P, ATCC 9144, ATCC 12598, and ATCC 25923 were obtained from the Polish Collection of Microorganisms (PCM, Polish Academy of Sciences, Wrocław), whereas 24 clinical strains were isolated from the patients of the Clinic of Dermatology, Venereology and Allergology (Medical University of Gdańsk). Nine strains were characterized as methicillin-resistant (MRSA). Preliminary identification and detection was conducted on the ChromID MRSA/ChromID S. aureus biplate (bioMérieux) for the simultaneous detection of S. aureus and methicillin-resistant S. aureus (MRSA). All experiments were conducted at least in triplicate.
To asses an overall activity of peptides, the mean MIC values were calculated.

S. aureus K50S = format: cell-based, Staphylococcus aureus; details: clinical strain, broth microdilution, 0.5 × 10^5 CFU/mL, 18 h, 37 °C, at least triplicate
Method: (§1) Microbiological assays were performed using reference and clinical strains of Staphylococcus aureus. Minimal inhibitory concentrations (MIC) were determined by broth microdilution method on 96-well polystyrene plates according to Clinical and Laboratory Standards Institute (CLSI) recommendations [Clinical and Laboratory Standards Institute (CLSI) [2012]]. For this purpose, the initial inoculums of 0.5 × 10^5 CFU/mL of bacteria were exposed to a range of concentrations of the peptides (0.5–256 µg/mL). All plates were incubated for 18 h at 37 °C. MIC was taken as the lowest concentration of the compound at which the growth of bacteria was not observed. Reference strains of S. aureus: ATCC 6538, ATCC 6538/P, ATCC 9144, ATCC 12598, and ATCC 25923 were obtained from the Polish Collection of Microorganisms (PCM, Polish Academy of Sciences, Wrocław), whereas 24 clinical strains were isolated from the patients of the Clinic of Dermatology, Venereology and Allergology (Medical University of Gdańsk). Nine strains were characterized as methicillin-resistant (MRSA). Preliminary identification and detection was conducted on the ChromID MRSA/ChromID S. aureus biplate (bioMérieux) for the simultaneous detection of S. aureus and methicillin-resistant S. aureus (MRSA). All experiments were conducted at least in triplicate.

S. aureus K46N = format: cell-based, Staphylococcus aureus; details: clinical strain, broth microdilution, 0.5 × 10^5 CFU/mL, 18 h, 37 °C, at least triplicate
Method: as §1

S. aureus 051N (MRSA) = format: cell-based, Staphylococcus aureus; details: clinical strain, broth microdilution, 0.5 × 10^5 CFU/mL, 18 h, 37 °C, at least triplicate
Method: as §1

S. aureus ATCC 9144 = format: cell-based, Staphylococcus aureus; details: ATCC 9144, reference strain; broth microdilution, 0.5 × 10^5 CFU/mL, 18 h, 37 °C, at least triplicate
Method: as §1

S. aureus 048S = format: cell-based, Staphylococcus aureus; details: clinical strain, broth microdilution, 0.5 × 10^5 CFU/mL, 18 h, 37 °C, at least triplicate
Method: as §1

S. aureus 060S = format: cell-based, Staphylococcus aureus; details: clinical strain, broth microdilution, 0.5 × 10^5 CFU/mL, 18 h, 37 °C, at least triplicate
Method: as §1

S. aureus ATCC 6538 = format: cell-based, Staphylococcus aureus; details: ATCC 6538, reference strain; broth microdilution, 0.5 × 10^5 CFU/mL, 18 h, 37 °C, at least triplicate
Method: as §1

S. aureus ATCC 25923 = format: cell-based, Staphylococcus aureus; details: ATCC 25923, reference strain; broth microdilution, 0.5 × 10^5 CFU/mL, 18 h, 37 °C, at least triplicate
Method: as §1

S. aureus 002S = format: cell-based, Staphylococcus aureus; details: clinical strain, broth microdilution, 0.5 × 10^5 CFU/mL, 18 h, 37 °C, at least triplicate
Method: as §1

S. aureus 051S = format: cell-based, Staphylococcus aureus; details: clinical strain, broth microdilution, 0.5 × 10^5 CFU/mL, 18 h, 37 °C, at least triplicate
Method: as §1

S. aureus 024N (MRSA) = format: cell-based, Staphylococcus aureus; details: clinical strain, broth microdilution, 0.5 × 10^5 CFU/mL, 18 h, 37 °C, at least triplicate
Method: as §1

S. aureus 001S (MRSA) = format: cell-based, Staphylococcus aureus; details: clinical strain, broth microdilution, 0.5 × 10^5 CFU/mL, 18 h, 37 °C, at least triplicate
Method: as §1

S. aureus K19N = format: cell-based, Staphylococcus aureus; details: clinical strain, broth microdilution, 0.5 × 10^5 CFU/mL, 18 h, 37 °C, at least triplicate
Method: as §1

S. aureus 001N (MRSA) = format: cell-based, Staphylococcus aureus; details: clinical strain, broth microdilution, 0.5 × 10^5 CFU/mL, 18 h, 37 °C, at least triplicate
Method: as §1

S. aureus 015N (MRSA) = format: cell-based, Staphylococcus aureus; details: clinical strain, broth microdilution, 0.5 × 10^5 CFU/mL, 18 h, 37 °C, at least triplicate
Method: as §1

S. aureus 017S (MRSA) = format: cell-based, Staphylococcus aureus; details: clinical strain, broth microdilution, 0.5 × 10^5 CFU/mL, 18 h, 37 °C, at least triplicate
Method: as §1

S. aureus 002N = format: cell-based, Staphylococcus aureus; details: clinical strain, broth microdilution, 0.5 × 10^5 CFU/mL, 18 h, 37 °C, at least triplicate
Method: as §1

S. aureus 004N (MRSA) = format: cell-based, Staphylococcus aureus; details: clinical strain, broth microdilution, 0.5 × 10^5 CFU/mL, 18 h, 37 °C, at least triplicate
Method: as §1

S. aureus 030N = format: cell-based, Staphylococcus aureus; details: clinical strain, broth microdilution, 0.5 × 10^5 CFU/mL, 18 h, 37 °C, at least triplicate
Method: as §1

S. aureus 053N = format: cell-based, Staphylococcus aureus; details: clinical strain, broth microdilution, 0.5 × 10^5 CFU/mL, 18 h, 37 °C, at least triplicate
Method: as §1

S. aureus 005S = format: cell-based, Staphylococcus aureus; details: clinical strain, broth microdilution, 0.5 × 10^5 CFU/mL, 18 h, 37 °C, at least triplicate
Method: as §1

S. aureus ATCC 6538/P = format: cell-based, Staphylococcus aureus; details: reference strain, broth microdilution, 0.5 × 10^5 CFU/mL, 18 h, 37 °C, at least triplicate
Method: as §1

S. aureus ATCC 12598 = format: cell-based, Staphylococcus aureus; details: ATCC 12598, reference strain; broth microdilution, 0.5 × 10^5 CFU/mL, 18 h, 37 °C, at least triplicate
Method: as §1

S. aureus 013S = format: cell-based, Staphylococcus aureus; details: clinical strain, broth microdilution, 0.5 × 10^5 CFU/mL, 18 h, 37 °C, at least triplicate
Method: as §1

S. aureus 033N = format: cell-based, Staphylococcus aureus; details: clinical strain, broth microdilution, 0.5 × 10^5 CFU/mL, 18 h, 37 °C, at least triplicate
Method: as §1

S. aureus 045N = format: cell-based, Staphylococcus aureus; details: clinical strain, broth microdilution, 0.5 × 10^5 CFU/mL, 18 h, 37 °C, at least triplicate
Method: as §1

S. aureus 017N (MRSA) = format: cell-based, Staphylococcus aureus; details: clinical strain, broth microdilution, 0.5 × 10^5 CFU/mL, 18 h, 37 °C, at least triplicate
Method: as §1

S. aureus 039N = format: cell-based, Staphylococcus aureus; details: clinical strain, broth microdilution, 0.5 × 10^5 CFU/mL, 18 h, 37 °C, at least triplicate
Method: as §1

S. aureus 043SC (MRSA) = format: cell-based, Staphylococcus aureus; details: clinical strain, broth microdilution, 0.5 × 10^5 CFU/mL, 18 h, 37 °C, at least triplicate
Method: as §1

Substance	Mean value of MIC [1]	MIC (S. aureus K50S) [µg/mL]	MIC (S. aureus K46N) [µg/mL]	MIC (S. aureus 051N (MRSA)) [µg/mL]	MIC (S. aureus ATCC 9144) [µg/mL]	MIC (S. aureus 048S) [µg/mL]	MIC (S. aureus 060S) [µg/mL]	MIC (S. aureus ATCC 6538) [µg/mL]	MIC (S. aureus ATCC 25923) [µg/mL]	MIC (S. aureus 002S) [µg/mL]	MIC (S. aureus 051S) [µg/mL]	MIC (S. aureus 024N (MRSA)) [µg/mL]	MIC (S. aureus 001S (MRSA)) [µg/mL]	MIC (S. aureus K19N) [µg/mL]	MIC (S. aureus 001N (MRSA)) [µg/mL]	MIC (S. aureus 015N (MRSA)) [µg/mL]	MIC (S. aureus 017S (MRSA)) [µg/mL]	MIC (S. aureus 002N) [µg/mL]	MIC (S. aureus 004N (MRSA)) [µg/mL]	MIC (S. aureus 030N) [µg/mL]	other results
FLPLIGRVLSGIL-NH2 [Temporin A AcO^−]	4.2 µg/mL	–	–	–	–	–	–	–	–	–	–	–	–	–	–	–	–	–	–	–	–
FLPLIGRVLSGIL-NH2 [Temporin A Cl^−]	5.7 µg/mL	4	8	8	8	4	4	4	4	4	8	4	4	8	8	8	8	4	4	4	MIC (S. aureus 053N): 4 µg/mL; MIC (S. aureus 005S): 4 µg/mL; MIC (S. aureus ATCC 6538/P): 8 µg/mL; MIC (S. aureus ATCC 12598): 4 µg/mL; MIC (S. aureus 013S): 4 µg/mL; MIC (S. aureus 033N): 4 µg/mL; MIC (S. aureus 045N): 8 µg/mL; MIC (S. aureus 017N (MRSA)): 8 µg/mL; MIC (S. aureus 039N): 4 µg/mL; MIC (S. aureus 043SC (MRSA)): 8 µg/mL; Mean MIC values [1]: 5.7 µg/mL
FLPLIGRVLSGIL-NH2 [Temporin A TFA^−]	5.9 µg/mL	–	–	–	–	–	–	–	–	–	–	–	–	–	–	–	–	–	–	–	–
GIGKFLKKAKKFGKAFVKILKK-NH2 [Pexiganan Cl^−]	7.4 µg/mL	–	–	–	–	–	–	–	–	–	–	–	–	–	–	–	–	–	–	–	–
GIGKFLKKAKKFGKAFVKILKK-NH2 [Pexiganan TFA^−]	8.4 µg/mL	–	–	–	–	–	–	–	–	–	–	–	–	–	–	–	–	–	–	–	–
GIGKFLKKAKKFGKAFVKILKK-NH2 [Pexiganan]	–	–	–	–	–	–	–	–	–	–	–	–	–	–	–	–	–	–	–	–	MIC range among strains [1]: 1 to 16 µg/mL
GLFDVIKKVASVIGGL-NH2 [Citropin 1.1 AcO^−]	10.0 µg/mL	1	16	8	16	16	1	4	16	16	4	2	16	16	16	8	8	16	8	16	MIC (S. aureus 053N): 16 µg/mL; MIC (S. aureus 005S): 2 µg/mL; MIC (S. aureus ATCC 6538/P): 8 µg/mL; MIC (S. aureus ATCC 12598): 8 µg/mL; MIC (S. aureus 013S): 2 µg/mL; MIC (S. aureus 033N): 8 µg/mL; MIC (S. aureus 045N): 16 µg/mL; MIC (S. aureus 017N (MRSA)): 4 µg/mL; MIC (S. aureus 039N): 8 µg/mL; MIC (S. aureus 043SC (MRSA)): 8 µg/mL; Mean MIC values [1]: 10.0 µg/mL
GLFDVIKKVASVIGGL-NH2 [Citropin 1.1 Cl^−]	10.0 µg/mL	1	16	8	16	16	2	4	16	8	4	2	16	16	16	8	4	16	8	16	MIC (S. aureus 053N): 16 µg/mL; MIC (S. aureus 005S): 2 µg/mL; MIC (S. aureus ATCC 6538/P): 8 µg/mL; MIC (S. aureus ATCC 12598): 8 µg/mL; MIC (S. aureus 013S): 2 µg/mL; MIC (S. aureus 033N): 16 µg/mL; MIC (S. aureus 045N): 16 µg/mL; MIC (S. aureus 017N (MRSA)): 4 µg/mL; MIC (S. aureus 039N): 16 µg/mL; MIC (S. aureus 043SC (MRSA)): 8 µg/mL; Mean MIC values [1]: 10.0 µg/mL
GLFDVIKKVASVIGGL-NH2 [Citropin 1.1 TFA^−]	13.0 µg/mL	2	16	8	32	16	2	16	32	16	4	2	16	16	16	16	4	16	16	16	MIC (S. aureus 053N): 16 µg/mL; MIC (S. aureus 005S): 2 µg/mL; MIC (S. aureus ATCC 6538/P): 16 µg/mL; MIC (S. aureus ATCC 12598): 16 µg/mL; MIC (S. aureus 013S): 2 µg/mL; MIC (S. aureus 033N): 16 µg/mL; MIC (S. aureus 045N): 16 µg/mL; MIC (S. aureus 017N (MRSA)): 8 µg/mL; MIC (S. aureus 039N): 16 µg/mL; MIC (S. aureus 043SC (MRSA)): 8 µg/mL; Mean MIC values [1]: 13.0 µg/mL
GLFDVIKKVASVIGGL-NH2 [Citropin 1.1]	–	–	–	–	–	–	–	–	–	–	–	–	–	–	–	–	–	–	–	–	MIC range among strains [1]: 1 to 32 µg/mL
KWKLFKKIGAVLKVL-NH2 [CAMEL]	below 3.5 µg/mL	–	–	–	–	–	–	–	–	–	–	–	–	–	–	–	–	–	–	–	MIC range among strains [1]: ≤ 0.25 to 8 µg/mL
